Experimental data taken from patent US9688653B2, “Ethoxyphenyl thienyl compounds and methods for the treatment of bacterial infections” (Duke University, priority 2013, dated 2017).

Experiments:
E. coli K1 strain UTI89 [1] = experiment: microbe, parasite or virus in culture; details: read-out: K1 phage IC50; second round of synthetic analogues, n = 3
Source text: The ability of the […] to bind to bacterial capsule, infect, and lyse E. coli UT189 was used as the primary assay to identify the effects of screened compounds on bacterial capsule formation. The phenotypic end-point assay measured the fluorescence generated by cellular processing of Alamar Blue as a direct indicator of cell viability. A total of […] compounds were screened using the primary assay. […] Hits were further evaluated using […] secondary assays for alternative measurement of compound-induced reduction in bacterial capsule formation (secondary assays 1 and 2) and specificity (secondary assays 3 and 4). Confirmed actives with an SI>5 were further investigated and subjected to chemical optimization, followed by secondary assay evaluation. Secondary assays more closely characterized the ability of the compounds to reduce bacterial capsule formation and can be used to examine the mechanism of action of the compounds. The combination of primary assay (to measure capsule reduction), counter assay (for general eukaryotic cell toxicity) and secondary assay (to measure reduction in capsule formation and specificity) were combined to allow a determination of probe efficacy, selectivity, and specificity.
A. Primary Assay: Screening for Inhibitors of Bacterial Capsule Biogenesis.
Primary assay: An end-point assay to measure the amount of K1 phage-induced bacterial cell lysis was employed to determine the compound effect on capsule biogenesis. K1 bacteriophage specifically binds the bacterial capsule during the initial stages of infection. Bacteria without capsule cannot be infected and lysed by the bacteriophage. […] A total of 338,740 compounds were screened at 100 μM in the primary screen Inhibition of phage lysis was calculated relative to the mean of the bacterial (positive) control on each microtiter plate. […] For calculation of S/B/Z value, and CV, the following formulae (in which SD stands for standard deviation) were used: S/B=mean signal/mean background; Z=1-3SD of sample+3SD of control mean of sample−mean of control; % CV=(SD mean signal/mean signal)×100.
IC50 values were calculated using a 4 parameter Levenburg-Marquardt algorithm, with the maximum and minimum locked at 0 and 100 respectively.
Primary assay: The primary assay was conducted in the 1,536 well plate format. Bacterial cultures of E. coli K1 strain UTI89 (cystitis isolate) and isogenic capsule mutant strains (as controls for phage infection) were grown and prepared at the screening center immediately prior to use. Overnight starting cultures of UTI89 were grown at 37° C., and inoculated into 1 liter of LB (starting OD600˜0.03), which was sufficient for screening 40 plates (including ˜10% waste) and ˜40,000 compounds as single points.
Control wells contained UTI89 (wt K1) with 0.5% DMSO as a simulated positive control; UTI89 with 0.5% DMSO and tetracycline for a negative growth control; and media plus vehicle control. 50 mL of LB Broth was inoculated with stock 150 μL E. coli UT189 and grown overnight at 37° C. The next day, cultures were diluted 1:75 in 1 L of LB Broth containing 0.5% DMSO. 3 μL of this culture was added to each plate well, and plates were incubated, inverted, at 37° C. for 2 hr. The K1F bacteriophage stock was diluted 1:8 in LB Broth containing 0.5% DMSO, and 1.5 μL of diluted phage (or media only) was added to the pre-plated test compound wells and appropriate control wells. The plates were centrifuged briefly, and then were incubated, inverted, at 37° C. for an additional 2 hr. Afterward, Alamar Blue reagent (Invitrogen, #DAL1100) was diluted 1:2 with LB broth and 1 μL was added to each plate well.

[2] = tested on: Bladder carcinoma 5637 cells; experiment: Cytotoxicity counterscreen, CellTiter Glo, 72 hr; assay type: cell-based, human
Procedure: B. Counterscreen: Cytotoxicity Screening for Potential Inhibitors of Bacterial Capsule Biogenesis.
Purpose: This cell-based assay measures the cytotoxicity of compounds in bladder carcinoma 5637 cells using luminescent cell viability assay readout.
Cytotoxicity assay: The cytotoxicity assay was performed as described in Section 6: Appendix. Hit cytotoxicity and the 50% toxic concentration (CC50) was determined and compared to the IC50 to calculate the selectivity index.
Assay Description: Cytotoxicity: Dose response testing (dose range=300-0.58 μM) established the hit cytotoxicity data. Compounds were plated in 384-well microplates in a stacked dose response format using the same doses used in the efficacy dose response. Bladder carcinoma 5637 cells were added to the compounds, and 72 hr later cell viability was measured using CellTiter Glo (38). Hit cytotoxicity and the 50% toxic concentration (TC50) was determined and compared to the IC50 to calculate the therapeutic index. Test compounds are serially diluted in a plate to plate matrix or stacked plate matrix. All 320 compounds in a source plate are diluted together resulting in a 10 point dose response dilution series. It is visualized as a serial dilution series proceeding vertically through a stack of plates with the high dose plate on top and the low dose plate on the bottom.
Control Drug: Hyamine was used as a positive cytotoxic control. All wells contained 0.5% DMSO.
Preparation of Bladder carcinoma 5637 cells: Cells are harvested and resuspended to 80,000 cells per ml in Complete DMEM/F12®.
Endpoint Read: Following the three day incubation period, the assay plates were equilibrated to room temperature for 30 min and an equal volume (30 μL) of Cell Titer-Glo® reagent (Promega Inc.) is added to each well using a WellMate™ (Matrix, Hudson, N.H.) and plates are incubated for an additional 10 min at room temperature. At the end of the incubation, luminescence is measured using a Perkin Elmer Envision™ multi-label reader (PerkinElmer, Wellesley, Mass.) with an integration time of 0.1 s.
Cytotoxicity. Testing was performed essentially as previously described. Concentration-response testing was performed over a range 0.58-300 μM in a […] well plate format. Bladder carcinoma 5637 cells (ATCC HTB-9) were added to the compounds, and 72 hrs later cell viability was measured using CellTiter Glo (Promega). The 50% toxic concentration (TC50) was determined and compared to the IC50 to calculate the therapeutic index. Hyamine was used as a positive cytotoxic control. All wells contained 0.5% DMSO.

E. coli K1 strain UTI89 [3] = experiment: Secondary assay 2: T7 phage-mediated lysis assay; assay type: cell-based, Escherichia coli; details: second round of synthetic analogues, n = 2; read-out: T7 phage IC50
Source text: D. Secondary Assay 2: Screening for Inhibitors of Bacterial Capsule Biogenesis—T7 Lysis Inhibition
Purpose: This secondary assay measures the compound mechanistic specificity for inhibition of bacterial capsule formation and excludes inhibitors of phage replication using a different bacteriophage (T7). In this assay, an increase in phage-induced lysis correlates to a decrease in capsule formation.
Purpose: This secondary assay measures the compound mechanistic specificity for inhibition of bacterial capsule formation using a different bacterial phage (T7). In this assay, an increase in phage-induced lysis correlates to a decrease in capsule formation.
Assay Description: T7 phage-mediated lysis assay: This assay determined if the mechanism of action of the compound is inhibition of phage infectivity or replication. The T7 phage has a nearly identical genome to K1F, without encoding an endosialidase. Its cycle of replication is similar to that of K1F as well. However, T7 entry into E. coli is inhibited by K capsules. This secondary assay was conducted in the 96 well plate format. […] Compounds were added in quadruplicate to plates in a concentration dependent manner in the range of 100-0.39 μM, followed by addition of 100 μL of bacterial culture. 1% DMSO (final well concentration) was included. The plates were tape sealed and shaken vigorously for 1.5 hr. An initial OD600 reading was measured to identify compounds that cause growth retardation or bacterial killing in the absence of phage. Next, T7 phage (5 μL) was added to all of the test wells. The plates were resealed and shaken vigorously at 37° C., and measurements of OD600 for phage-mediated lysis were taken after 3 hr. True inhibitors of capsule yielded bacteria that were susceptible to T7 phage and lysed within 2 hr of the addition of phage. […] The positive control drug C7 (100 μM final well concentration) was used in this screen.
T7 phage counter assay. This secondary assay was performed as previously described and was used to distinguish compounds with phage inhibitory effects from true polysaccharide capsule inhibitors. […] Thus, the presence of a capsule inhibits T7-mediated lysis. In this assay, an increase in phage-induced lysis correlates to a decrease in capsule formation. True inhibitors of capsule yielded bacteria that were susceptible to T7 phage and lysed within 2 hr of the addition of phage. […] The positive control molecule C7 (100 μM final well concentration) was used in this screen.

`O=C(O)c1sc(-c2ccc(OCC(F)(F)F)cc2)cc1NC(=O)c1c(F)cccc1F` [compound 56643002] was tested, and the IC50 (E. coli K1 strain UTI89 [1]) was 2.86 µM, the IC50 [2] was 75.2 µM and the IC50 (E. coli K1 strain UTI89 [3]) was under 0.625 µM.

In the case of `O=C(Nc1cc(-c2ccc(OCC(F)(F)F)cc2)sc1C(=O)O)c1ccc(Br)o1` [compound 56643003], the IC50 (E. coli K1 strain UTI89 [1]) is reported as 4.9 µM, the IC50 [2] is reported as 50 µM and the IC50 (E. coli K1 strain UTI89 [3]) is reported as 0.625 µM.

For `CCCc1ccc(-c2cc(NC(=O)c3cc(Br)c(Br)o3)c(C(=O)O)s2)cc1` [compound 56643005], the IC50 (E. coli K1 strain UTI89 [1]) was 6.78 µM, the IC50 [2] was 41 µM and the IC50 (E. coli K1 strain UTI89 [3]) was under 5 µM.

Compound `CCOc1ccc(-c2cc(NC(=O)c3c(F)cc(F)cc3F)c(C(=O)O)s2)cc1` [compound 56643006] has an IC50 (E. coli K1 strain UTI89 [1]) of 20 µM, an IC50 [2] of 76.6 µM and an IC50 (E. coli K1 strain UTI89 [3]) of under 5 µM.

For `CCCCOc1ccc(-c2cc(NC(=O)c3c(F)cccc3F)c(C(=O)O)s2)cc1` [compound 56643007], the IC50 (E. coli K1 strain UTI89 [1]) was under 0.78 µM, the IC50 [2] was 42.6 µM and the IC50 (E. coli K1 strain UTI89 [3]) was under 0.625 µM.

`O=C(Nc1cc(-c2ccc(OCCCC(F)(F)F)cc2)sc1C(=O)O)c1ccc(Br)o1` [compound 56643008] was tested, and the IC50 (E. coli K1 strain UTI89 [1]) was 1.78 µM, the IC50 [2] was 38.7 µM and the IC50 (E. coli K1 strain UTI89 [3]) was under 2.5 µM.

With `O=C(Nc1cc(-c2ccc(OCCCC(F)(F)F)cc2)sc1C(=O)O)c1cc(Br)c(Br)o1` [compound 56643009] the IC50 (E. coli K1 strain UTI89 [1]) was over 100 µM, the IC50 [2] was 251 µM and the IC50 (E. coli K1 strain UTI89 [3]) was under 2.5 µM.

For `O=C(O)c1sc(-c2ccc(OCCC(F)(F)F)cc2)cc1NC(=O)c1c(F)cc(F)cc1F` [compound 56643010], the IC50 (E. coli K1 strain UTI89 [1]) was 3.11 µM, the IC50 [2] was 63.6 µM and the IC50 (E. coli K1 strain UTI89 [3]) was under 0.625 µM.

`CCCc1ccc(-c2cc(NC(=O)c3c(F)cc(F)cc3F)c(C(=O)O)s2)cc1` [compound 56643011] showed an IC50 (E. coli K1 strain UTI89 [1]) of 15.9 µM, an IC50 [2] of 69.9 µM and an IC50 (E. coli K1 strain UTI89 [3]) of 2.5 to 5 µM.

Work on `O=C(O)c1sc(-c2ccc(OCC(F)(F)F)cc2)cc1NC(=O)c1c(F)cc(F)cc1F` [compound 56643012] yielded an IC50 (E. coli K1 strain UTI89 [1]) of 94.9 µM, an IC50 [2] of 161 µM and an IC50 (E. coli K1 strain UTI89 [3]) of 2.5 to 5 µM.

`CCCc1ccc(-c2cc(NC(=O)c3ccc(Br)o3)c(C(=O)O)s2)cc1` [compound 56643013] was tested, and the IC50 (E. coli K1 strain UTI89 [1]) was 1.43 µM, the IC50 [2] was 46.4 µM and the IC50 (E. coli K1 strain UTI89 [3]) was under 0.625 µM.

For `O=C(O)c1sc(-c2ccc(OCCCC(F)(F)F)cc2)cc1NC(=O)c1c(F)cc(F)cc1F` [compound 56643015], the IC50 (E. coli K1 strain UTI89 [1]) was 5.53 µM, the IC50 [2] was 54.7 µM and the IC50 (E. coli K1 strain UTI89 [3]) was under 1.25 µM.

Compound `CCCc1ccc(-c2cc(NC(=O)c3c(F)cccc3F)c(C(=O)O)s2)cc1` [compound 56643016] has an IC50 (E. coli K1 strain UTI89 [1]) of 2.63 µM, an IC50 [2] of 54.9 µM and an IC50 (E. coli K1 strain UTI89 [3]) of under 0.625 µM.

In the case of `CCOc1ccc(-c2cc(NC(=O)c3c(F)cccc3C(F)(F)F)c(C(=O)O)s2)cc1` [compound 56643017], the IC50 (E. coli K1 strain UTI89 [1]) is reported as 52.6 µM, the IC50 [2] is reported as 62 µM and the IC50 (E. coli K1 strain UTI89 [3]) is reported as under 5 µM.

For `CCCCOc1ccc(-c2cc(NC(=O)c3cc(Br)c(Br)o3)c(C(=O)O)s2)cc1` [compound 56643019], the IC50 (E. coli K1 strain UTI89 [1]) was 23.3 µM, the IC50 [2] was 31.7 µM and the IC50 (E. coli K1 strain UTI89 [3]) was 1.25 to 2.5 µM.

Work on `O=C(O)c1sc(-c2ccc(OCCC(F)(F)F)cc2)cc1NC(=O)c1c(F)cccc1F` [compound 56643020] yielded an IC50 (E. coli K1 strain UTI89 [1]) of 0.84 µM, an IC50 [2] of 68.4 µM and an IC50 (E. coli K1 strain UTI89 [3]) of under 0.0156 µM.

`O=C(Nc1cc(-c2ccc(OCCC(F)(F)F)cc2)sc1C(=O)O)c1ccc(Br)o1` [compound 56643022] showed an IC50 (E. coli K1 strain UTI89 [1]) of 0.84 µM, an IC50 [2] of 41.7 µM and an IC50 (E. coli K1 strain UTI89 [3]) of under 0.625 µM.

Work on `CCCOc1ccc(-c2cc(NC(=O)c3c(F)cc(F)cc3F)c(C(=O)O)s2)cc1` [compound 56643023] yielded an IC50 (E. coli K1 strain UTI89 [1]) of 8.06 µM, an IC50 [2] of 85.6 µM and an IC50 (E. coli K1 strain UTI89 [3]) of under 0.625 µM.

Compound `O=C(O)c1sc(-c2ccc(OCCCC(F)(F)F)cc2)cc1NC(=O)c1c(F)cccc1F` [compound 56643024] has an IC50 (E. coli K1 strain UTI89 [1]) of 10.3 µM, an IC50 [2] of 241 µM and an IC50 (E. coli K1 strain UTI89 [3]) of under 2.5 µM.

`[N-]=[N+]=NCCOc1ccc(-c2cc(NC(=O)c3c(F)cccc3F)c(C(=O)O)s2)cc1` [compound 56643025] was tested, and the IC50 (E. coli K1 strain UTI89 [1]) was 17.5 µM, the IC50 [2] was 273 µM and the IC50 (E. coli K1 strain UTI89 [3]) was under 0.625 µM.
